Article PMC5218480 (PLoS ONE, 2017)

Test system: MV-4-11 cells
Assay: Gene expression microarray analysis (Affymetrix PrimeView) and GSEA
Assay type: cell-based, human
Set-up: RFU PODN (11730768_x_at) / Fold change /veh PODN (11730768_x_at) / RFU LINC00158 (11744669_a_at) / Fold change /veh LINC00158 (11744669_a_at) / RFU DUSP10 (11751237_a_at) / Fold change /veh DUSP10 (11751237_a_at) / RFU ID3 (11757404_x_at) / Fold change /veh ID3 (11757404_x_at) / RFU PLEKHG5 (11737974_s_at) / Fold change /veh PLEKHG5 (11737974_s_at) / RFU LRRC4B (11730491_at) / Fold change /veh LRRC4B (11730491_at) / RFU GIMAP4 (11747438_a_at) / Fold change /veh GIMAP4 (11747438_a_at) / RFU KRT8 (11758183_x_at) / Fold change /veh KRT8 (11758183_x_at) / RFU CNN1 (11734310_a_at) / Fold change /veh CNN1 (11734310_a_at) / RFU VPS37D (11726825_at) / Fold change /veh VPS37D (11726825_at) / RFU C10orf10 (11716522_x_at) / Fold change /veh C10orf10 (11716522_x_at) / RFU KIR2DL2 /// KIR2DL4 /// KIR2DL5A /// KIR2DL5B /// KIR2DS1 /// KIR2DS2 /// KIR2DS3 /// KIR2DS4 /// KIR3DL3 /// KIR3DL3 /// KIR3DS1 (11738374_at) / Fold change /veh KIR2DL2 /// KIR2DL4 /// KIR2DL5A /// KIR2DL5B /// KIR2DS1 /// KIR2DS2 /// KIR2DS3 /// KIR2DS4 /// KIR3DL3 /// KIR3DL3 /// KIR3DS1 (11738374_at) / RFU C1QL1 (11718748_at) / Fold change /veh C1QL1 (11718748_at) / RFU TMPRSS4 (11747572_a_at) / Fold change /veh TMPRSS4 (11747572_a_at) / RFU HAMP (11756126_x_at) / Fold change /veh HAMP (11756126_x_at) / RFU RNFT2 (11725882_a_at) / Fold change /veh RNFT2 (11725882_a_at) / RFU NR4A2 (11747474_a_at) / Fold change /veh NR4A2 (11747474_a_at) / RFU ABCC12 (11746883_a_at) / Fold change /veh ABCC12 (11746883_a_at) / RFU TMEM136 (11760407_x_at) / Fold change /veh TMEM136 (11760407_x_at) / RFU CLDN22 /// WWC2 (11732394_at) / Fold change /veh CLDN22 /// WWC2 (11732394_at) / RFU HLA-DPB1 (11760878_x_at) / Fold change /veh HLA-DPB1 (11760878_x_at) / RFU SPINT1 (11716480_a_at) / Fold change /veh SPINT1 (11716480_a_at) / RFU GAP43 (11754022_s_at) / Fold change /veh GAP43 (11754022_s_at) / RFU A4GNT (11735810_at) / Fold change /veh A4GNT (11735810_at) / RFU PRB3 (11715151_x_at) / Fold change /veh PRB3 (11715151_x_at) / RFU TUBB4B (11761932_at) / Fold change /veh TUBB4B (11761932_at) / RFU CAPN14 (11732068_a_at) / Fold change /veh CAPN14 (11732068_a_at) / RFU TMCC2 (11721928_a_at) / Fold change /veh TMCC2 (11721928_a_at) / RFU IRGQ (11745062_a_at) / Fold change /veh IRGQ (11745062_a_at) / RFU FAM174B (11720279_a_at) / Fold change /veh FAM174B (11720279_a_at) / RFU TMPRSS4 (11748680_a_at) / Fold change /veh TMPRSS4 (11748680_a_at) / RFU FAM212B (11763350_a_at) / Fold change /veh FAM212B (11763350_a_at) / RFU PLEKHG5 (11743358_a_at) / Fold change /veh PLEKHG5 (11743358_a_at) / RFU ZSCAN30 (11745921_a_at) / Fold change /veh ZSCAN30 (11745921_a_at) / RFU CMKLR1 (11741424_a_at) / Fold change /veh CMKLR1 (11741424_a_at) / RFU LOC101060620 /// MAPK8IP1 (11723275_at) / Fold change /veh LOC101060620 /// MAPK8IP1 (11723275_at) / RFU SPTSSB (11747773_x_at) / Fold change /veh SPTSSB (11747773_x_at) / RFU PRSS12 (11739890_at) / Fold change /veh PRSS12 (11739890_at) / RFU BIN1 (11741810_x_at) / Fold change /veh BIN1 (11741810_x_at) / RFU WNT11 (11732464_a_at) / Fold change /veh WNT11 (11732464_a_at) / RFU C10orf10 (11716521_a_at) / Fold change /veh C10orf10 (11716521_a_at) / RFU C5orf56 (11738089_at) / Fold change /veh C5orf56 (11738089_at) / RFU CYB561 (11721691_x_at) / Fold change /veh CYB561 (11721691_x_at) / RFU ANKRD19P (11752326_a_at) / Fold change /veh ANKRD19P (11752326_a_at) / RFU OR2T12 /// OR2T33 /// OR2T8 (11738714_s_at) / Fold change /veh OR2T12 /// OR2T33 /// OR2T8 (11738714_s_at) / RFU VCAN (11748164_a_at) / Fold change /veh VCAN (11748164_a_at) / RFU JSRP1 (11732532_at) / Fold change /veh JSRP1 (11732532_at) / RFU KRTAP10-11 (11738290_x_at) / Fold change /veh KRTAP10-11 (11738290_x_at) / RFU MYO3A (11730013_a_at) / Fold change /veh MYO3A (11730013_a_at) / RFU EBF3 (11725865_a_at) / Fold change /veh EBF3 (11725865_a_at) / RFU CAMK2N1 (11719241_x_at) / Fold change /veh CAMK2N1 (11719241_x_at) / RFU C5orf56 (11738088_a_at) / Fold change /veh C5orf56 (11738088_a_at) / RFU OLFML3 (11715873_a_at) / Fold change /veh OLFML3 (11715873_a_at) / RFU LOC100653217 /// NTM (11731650_a_at) / Fold change /veh LOC100653217 /// NTM (11731650_a_at) / RFU MAPK11 (11762145_a_at) / Fold change /veh MAPK11 (11762145_a_at) / RFU FIZ1 (11724087_x_at) / Fold change /veh FIZ1 (11724087_x_at) / RFU OASL (11726364_x_at) / Fold change /veh OASL (11726364_x_at) / RFU SOX15 (11748057_x_at) / Fold change /veh SOX15 (11748057_x_at) / RFU CD79A (11719716_a_at) / Fold change /veh CD79A (11719716_a_at) / RFU HIST1H1D (11736915_at) / Fold change /veh HIST1H1D (11736915_at) / RFU CASKIN2 (11723855_a_at) / Fold change /veh CASKIN2 (11723855_a_at) / RFU LOC730098 (11760151_x_at) / Fold change /veh LOC730098 (11760151_x_at) / RFU OR4N2 (11742367_at) / Fold change /veh OR4N2 (11742367_at) / RFU PRRT2 (11749266_a_at) / Fold change /veh PRRT2 (11749266_a_at) / RFU SNX32 (11753110_a_at) / Fold change /veh SNX32 (11753110_a_at) / RFU CDHR5 (11726645_a_at) / Fold change /veh CDHR5 (11726645_a_at) / RFU RCAN1 (11760418_a_at) / Fold change /veh RCAN1 (11760418_a_at) / RFU FAM167A (11723789_a_at) / Fold change /veh FAM167A (11723789_a_at) / RFU FAM26E (11764081_at) / Fold change /veh FAM26E (11764081_at) / RFU ISYNA1 (11749810_s_at) / Fold change /veh ISYNA1 (11749810_s_at) / RFU ACY1 (11761880_at) / Fold change /veh ACY1 (11761880_at) / RFU 11764098_at / Fold change /veh 11764098_at / RFU SAMD14 (11745864_x_at) / Fold change /veh SAMD14 (11745864_x_at) / RFU NPB (11741838_a_at) / Fold change /veh NPB (11741838_a_at) / RFU TMPRSS6 (11731388_a_at) / Fold change /veh TMPRSS6 (11731388_a_at) / RFU KRTAP10-2 (11738614_at) / Fold change /veh KRTAP10-2 (11738614_at) / RFU ARHGAP8 /// PRR5-ARHGAP8 (11727945_x_at) / Fold change /veh ARHGAP8 /// PRR5-ARHGAP8 (11727945_x_at) / RFU KRTAP5-7 /// NADSYN1 (11734609_at) / Fold change /veh KRTAP5-7 /// NADSYN1 (11734609_at) / RFU RASL12 (11751679_a_at) / Fold change /veh RASL12 (11751679_a_at) / RFU CDKN2B (11736163_a_at) / Fold change /veh CDKN2B (11736163_a_at) / RFU PRF1 (11729649_at) / Fold change /veh PRF1 (11729649_at) / RFU, ZNF638 /// ZNF638-IT1 / Fold change vs veh, ZNF638 /// ZNF638-IT1 / RFU, PANK3 / Fold change vs veh, PANK3 / RFU, SH3YL1 / Fold change vs veh, SH3YL1 / RFU, ZEB2 / Fold change vs veh, ZEB2 / RFU, NRIP1 / Fold change vs veh, NRIP1 / RFU, PTTG1IP / Fold change vs veh, PTTG1IP / RFU, CAPN2 / Fold change vs veh, CAPN2 / RFU, MED14 / Fold change vs veh, MED14 / RFU, SNORA58 / Fold change vs veh, SNORA58 / RFU, C1orf63 / Fold change vs veh, C1orf63 / RFU, LRRFIP1 / Fold change vs veh, LRRFIP1 / RFU, NDUFAF7 / Fold change vs veh, NDUFAF7 / RFU, SLC12A2 / Fold change vs veh, SLC12A2 / RFU, IBTK / Fold change vs veh, IBTK / RFU, ESF1 / Fold change vs veh, ESF1 / Fold change vs veh, TMEM50B / RFU, TAOK1 / Fold change vs veh, TAOK1 / RFU, ACBD3 / Fold change vs veh, ACBD3 / RFU, TMA16 / Fold change vs veh, TMA16 / RFU, RWDD3 / Fold change vs veh, RWDD3 / RFU, BCAT1 / Fold change vs veh, BCAT1 / RFU, EDEM3 / Fold change vs veh, EDEM3 / RFU, TMEM33 / Fold change vs veh, TMEM33 / RFU, WDR75 / Fold change vs veh, WDR75 / RFU, AHCTF1 / Fold change vs veh, AHCTF1 / RFU, TFRC / Fold change vs veh, TFRC / RFU, ZDHHC17 / Fold change vs veh, ZDHHC17 / RFU, NOM1 / Fold change vs veh, NOM1 / RFU, ARL8B / Fold change vs veh, ARL8B / RFU, ZBTB11 / Fold change vs veh, ZBTB11 / RFU, TAMM41 / Fold change vs veh, TAMM41 / RFU, KIAA1704 /// LOC100996395 / Fold change vs veh, KIAA1704 /// LOC100996395 / RFU, ING1 / Fold change vs veh, ING1 / RFU, TRMT61B / Fold change vs veh, TRMT61B / RFU, FUBP3 / Fold change vs veh, FUBP3 / RFU, TP53 / Fold change vs veh, TP53 / RFU, TNKS2 / Fold change vs veh, TNKS2 / RFU, ZFP14 / Fold change vs veh, ZFP14 / RFU, ACTR2 / Fold change vs veh, ACTR2 / RFU, PPP3R1 / Fold change vs veh, PPP3R1 / RFU, PIK3R1 / Fold change vs veh, PIK3R1 / RFU, HNRNPA1 / Fold change vs veh, HNRNPA1 / RFU, RNF170 / Fold change vs veh, RNF170 / RFU, ZNF28 / Fold change vs veh, ZNF28 / RFU, RNGTT / Fold change vs veh, RNGTT / RFU, OGT / Fold change vs veh, OGT / RFU, BRD1 / Fold change vs veh, BRD1 / RFU, MARS / Fold change vs veh, MARS / RFU, ZNF655 / Fold change vs veh, ZNF655 / RFU, FAHD1 / Fold change vs veh, FAHD1 / RFU, BDP1 / Fold change vs veh, BDP1 / RFU, LRRCC1 / Fold change vs veh, LRRCC1 / RFU, ARID1A / Fold change vs veh, ARID1A / RFU, ZNF146 / Fold change vs veh, ZNF146 / RFU, ZNF330 / Fold change vs veh, ZNF330 / RFU, GPN3 / Fold change vs veh, GPN3 / RFU, C9orf123 / Fold change vs veh, C9orf123 / RFU, N4BP2L2 / Fold change vs veh, N4BP2L2 / RFU, ARFIP1 / Fold change vs veh, ARFIP1 / RFU, FAM179B / Fold change vs veh, FAM179B / RFU, BCL10 / Fold change vs veh, BCL10 / RFU, UHRF1BP1L / Fold change vs veh, UHRF1BP1L / RFU, BET1 / Fold change vs veh, BET1 / RFU, CNOT2 / Fold change vs veh, CNOT2 / RFU, ZNF268 / Fold change vs veh, ZNF268 / Fold change vs veh, ZNF507 / RFU, DGCR2 / Fold change vs veh, DGCR2 / RFU, WDSUB1 / Fold change vs veh, WDSUB1 / Fold change vs veh, HSP90B1 /// MIR3652 / RFU, ADSS / Fold change vs veh, ADSS / RFU, GK / Fold change vs veh, GK / RFU, ZNF148 / Fold change vs veh, ZNF148 / RFU, TAF9 / Fold change vs veh, TAF9 / RFU, SLC1A5 / Fold change vs veh, SLC1A5 / RFU, SLMO2 / Fold change vs veh, SLMO2 / RFU, ABCC4 / Fold change vs veh, ABCC4 / RFU, LOC101060439 /// RAP1B / Fold change vs veh, LOC101060439 /// RAP1B / RFU, RFX7 / Fold change vs veh, RFX7 / RFU, GTPBP10 / Fold change vs veh, GTPBP10 / RFU, CNEP1R1 / Fold change vs veh, CNEP1R1 / RFU, BIVM-ERCC5 /// ERCC5 / Fold change vs veh, BIVM-ERCC5 /// ERCC5 / RFU, ILF3 / Fold change vs veh, ILF3 / RFU 11762660_at / Fold change /veh 11762660_at / RFU VCAN (11757783_s_at) / Fold change /veh VCAN (11757783_s_at) / RFU DDX43 (11728927_at) / Fold change /veh DDX43 (11728927_at) / RFU KRT8 (11758188_x_at) / Fold change /veh KRT8 (11758188_x_at) / RFU NKD1 (11759106_at) / Fold change /veh NKD1 (11759106_at) / RFU SRD5A1 (11742802_a_at) / Fold change /veh SRD5A1 (11742802_a_at) / RFU TPSAB1 /// TPSB2 (11721975_s_at) / Fold change /veh TPSAB1 /// TPSB2 (11721975_s_at) / RFU GSTM3 (11746129_a_at) / Fold change /veh GSTM3 (11746129_a_at) / RFU IL23R (11737362_x_at) / Fold change /veh IL23R (11737362_x_at) / RFU TMEM51 (11727254_a_at) / Fold change /veh TMEM51 (11727254_a_at) / RFU PIWIL2 (11732686_x_at) / Fold change /veh PIWIL2 (11732686_x_at) / RFU ORM1 (11744905_x_at) / Fold change /veh ORM1 (11744905_x_at) / RFU CCDC152 (11743942_at) / Fold change /veh CCDC152 (11743942_at) / RFU ECM1 (11717891_a_at) / Fold change /veh ECM1 (11717891_a_at) / RFU IL23R (11748794_a_at) / Fold change /veh IL23R (11748794_a_at) / RFU TNFAIP8L3 (11732012_x_at) / Fold change /veh TNFAIP8L3 (11732012_x_at) / RFU MBOAT4 (11741988_at) / Fold change /veh MBOAT4 (11741988_at) / RFU 11764193_at / Fold change /veh 11764193_at / RFU TMEM53 (11763286_at) / Fold change /veh TMEM53 (11763286_at) / RFU MAGEB2 (11727129_at) / Fold change /veh MAGEB2 (11727129_at) / RFU TMEM200A (11744735_a_at) / Fold change /veh TMEM200A (11744735_a_at) / RFU CCDC152 (11751479_a_at) / Fold change /veh CCDC152 (11751479_a_at) / RFU FAM211A (11726209_a_at) / Fold change /veh FAM211A (11726209_a_at) / RFU RGS16 (11746705_a_at) / Fold change /veh RGS16 (11746705_a_at) / RFU VCAN (11755009_s_at) / Fold change /veh VCAN (11755009_s_at) / RFU RHOB (11743442_s_at) / Fold change /veh RHOB (11743442_s_at) / RFU RGS16 (11720943_a_at) / Fold change /veh RGS16 (11720943_a_at) / RFU RGS16 (11720944_at) / Fold change /veh RGS16 (11720944_at) / RFU, VPS4B / Fold change vs veh, VPS4B / RFU, CREB1 / Fold change vs veh, CREB1 / RFU, DNAJC13 / Fold change vs veh, DNAJC13 / RFU, GNAQ / Fold change vs veh, GNAQ / RFU, CDK5R1 / Fold change vs veh, CDK5R1 / RFU, ZRANB3 / Fold change vs veh, ZRANB3 / RFU, CUL4A / Fold change vs veh, CUL4A / RFU, CCNY / Fold change vs veh, CCNY / RFU, UFL1 / Fold change vs veh, UFL1 / RFU, COG3 / Fold change vs veh, COG3 / RFU, DIAPH2 / Fold change vs veh, DIAPH2 / RFU, SKA2 / Fold change vs veh, SKA2 / RFU, AFF3 / Fold change vs veh, AFF3 / RFU, LMF1 / Fold change vs veh, LMF1 / RFU, IPO11 / Fold change vs veh, IPO11 / RFU, DFFB / Fold change vs veh, DFFB / RFU, FOXP1 / Fold change vs veh, FOXP1 / RFU, CARD8 / Fold change vs veh, CARD8 / RFU, STRN3 / Fold change vs veh, STRN3 / RFU, ADK / Fold change vs veh, ADK / RFU, RASSF2 / Fold change vs veh, RASSF2 / RFU, WIPF1 / Fold change vs veh, WIPF1 / RFU, LARP1B / Fold change vs veh, LARP1B / RFU, RASA1 / Fold change vs veh, RASA1 / RFU, RB1 / Fold change vs veh, RB1 / RFU, PPFIA1 / Fold change vs veh, PPFIA1 / RFU, MAT2A / Fold change vs veh, MAT2A / RFU, CCT5 / Fold change vs veh, CCT5 / RFU, WDR92 / Fold change vs veh, WDR92 / RFU, CUX1 / Fold change vs veh, CUX1 / RFU, TTC7A / Fold change vs veh, TTC7A / RFU, TMEM135 / Fold change vs veh, TMEM135 / RFU, DEPTOR / Fold change vs veh, DEPTOR / RFU, CPM / Fold change vs veh, CPM / RFU, DNAJB6 / Fold change vs veh, DNAJB6 / RFU, CACNA2D3 / Fold change vs veh, CACNA2D3 / RFU, DTX4 / Fold change vs veh, DTX4 / RFU, TFCP2 / Fold change vs veh, TFCP2 / RFU, GMCL1 /// GMCL1P1 / Fold change vs veh, GMCL1 /// GMCL1P1 / RFU, AEBP2 / Fold change vs veh, AEBP2 / RFU, SNHG1 /// SNORD22 /// SNORD25 /// SNORD26 /// SNORD27 /// SNORD28 /// SNORD29 /// SNORD31 / Fold change vs veh, SNHG1 /// SNORD22 /// SNORD25 /// SNORD26 /// SNORD27 /// SNORD28 /// SNORD29 /// SNORD31 / Fold change (Aza/veh), C12orf56 (ProbeSet 11735607_a_at) / Fold change (ACY-1035/veh), C12orf56 (ProbeSet 11735607_a_at) / Fold change (Aza/veh), FGFR1OP (ProbeSet 11751329_s_at) / Fold change (ACY-1035/veh), FGFR1OP (ProbeSet 11751329_s_at) / Fold change (Aza/veh), VPS36 (ProbeSet 11739960_a_at) / Fold change (ACY-1035/veh), VPS36 (ProbeSet 11739960_a_at) / RFU SYPL1 (11715823_x_at) / Fold change /veh SYPL1 (11715823_x_at) / RFU IGFBP7 (11715501_s_at) / Fold change /veh IGFBP7 (11715501_s_at) / RFU REEP3 (11722064_at) / Fold change /veh REEP3 (11722064_at) / RFU IGLL1 (11728026_x_at) / Fold change /veh IGLL1 (11728026_x_at): dose or concentration left out as unconfirmed
Conditions: MV-4-11 cells, 48 hours

Q: For `Nc1ccc(-c2cccs2)cc1NC(=O)c1ccc2c(c1)cc(C1CC1)n2CCN1CCOCC1` [ACY-1035], which “Fold change /veh SRD5A1 (11742802_a_at)” value is on record?
A: Its value is 1.16.
